Measured values: patent publication US10201588B2, “Materials and methods of treating dyslipidemia” (UNIVERSITY OF MIAMI, priority 2017, dated 2019)
Marks after values point to notes of the source that are not given here.

How the values were obtained:
[1] = test system: Rat small intestinal epithelial cells (IEC-6); assay: ApoB-48 lipoprotein secretion by cultured intestinal epithelial cells challenged with oleic acid; assay type: cell-based
Description: Cell culture. Rat small intestinal epithelial cells (IEC-6, ATCC® CRL-1592™) were grown in 6-well plates in DMEM medium supplemented with 10% fetal bovine serum (heat inactivated FBS, Gibco/Invitrogen), 1 mM sodium pyruvate, 2 mM L-alanyl-L-glutamine (GLUTAMAX I), 5 μg/ml insulin (Sigma-Aldrich), 100 U/ml penicillin and 100 μg/ml streptomycin at 37° C. in a 5% CO2 atmosphere. For all experiments, cells up to passage 6 were used for all experiments.
Peptide Analogs Preparation. GHRH agonist JI-34, and GHRH antagonist MIA-602 were synthesized in the laboratory of A.V.S. (23, 24) and dissolved initially in DMSO before dilution with incubation medium. The final concentration of DMSO in the medium never exceeded 0.1% v/v.
Assessment of ApoB-48 lipoprotein secretion by cultured intestinal epithelial cells. Upon confluence, cells were washed twice with serum-free DMEM medium, upon which fresh serum-free medium, supplemented with or without 5 μg/ml insulin was added. After 2 hrs of equilibration, cells were pre-treated for 1 hour with the GHRH receptor agonist JI-34 (1 μM, dissolved in DMSO), while control cells received vehicle alone, followed by addition of the GLP-1 receptor agonist (Exendin-4, 10 nM, Sigma-Aldrich). After 3 hrs, cells were treated with 0.5 mM oleic acid (OA) complexed to BSA (Sigma-Aldrich) for 3 hrs, to allow for lipid loading into ApoB-48 lipoproteins. Additional cells were pre-incubated or not for 1 h with the GLP-1 receptor antagonist Exendin 9-39 (100 nM, Sigma-Aldrich), or the GHRH antagonist MIA-602 (1 μM, dissolved in DMSO). Upon completion of treatment, medium was collected, centrifuged at 1,000×g for 3 minutes, and saved at −80° C. for further analysis.
(§1) Determination of metabolites. ApoB-48 lipoprotein was measured in plasma samples from rats and in culture medium supernatant from IEC by the use of a commercial ELISA kit (MyBioSource). The VLDL/LDL Cholesterol Assay kit (Abcam), the Total Cholesterol Assay kit (Wako) and the PicoProbe Triglyceride Quantification Assay Kit (Abcam) were used for analysis of VLDL/LDL fractions, total cholesterol and triglycerides in plasma samples. Albumin and creatinine levels in urine were analyzed by the use of Nephrat II and Creatinine Companion (Exocell) assay kits, respectively. Chemokines and glucose regulatory hormones (MCP-1, insulin, amylin, GIP and glucagon) were analyzed using the MILLIPLEX MAP Rat Metabolic Hormone Magnetic Bead Panel—Metabolism Multiplex Assay (RMHMAG-84K, EMD Millipore). Levels of growth hormone (GH) were assay with Rat Growth Hormone ELISA kit (EMD Millipore). Glucose levels were measured in blood by AlphaTRAK Blood Glucose Monitoring System.

T1D rats [2] = assay: Plasma metabolites, lipids, glucose regulatory hormones and chemokines in T1D rats; assay type: in vivo, rat
Description: T1 Diabetes Animal Model. Wistar rats (male, 200-250 g, Envigo RMS, Inc.) were rendered diabetic with a single dose of streptozotocin (STZ, 50 mg/kg body weight, i.p.). Once rats became hyperglycemic (>350 mg/dl plasma glucose, usually 3-4 days post STZ injection), they were divided into two groups, with and without treatment with the GHRH antagonist MIA-602 ([…], s.c.) administered three times a week for 14 weeks after establishment of diabetes. Untreated animals received vehicle alone with the same regimen. Upon completion of the 14 weeks period, animals were placed in metabolic cages for 3 days for adaptation, allowing them free movement, water and food intake. During the entire experiment, rats were fed regular rat chow (Teklad Diet, Madison, Wis.) and received water ad libitum. On the third day in the metabolic cages, food and water intake was monitored for a period of 24 hours. 24-hour urine specimens were also collected, centrifuged at 400×g for 5 minutes for particulate removal, aliquoted and stored at −80° C. Animals were then euthanized in the morning around 10 am in a fed state, under deep anesthesia with isoflurane, by exsanguination, followed by removal of vital organs. Plasma was separated from heparinized blood samples, aliquoted and saved at −80° C. for further analysis. Rats were handled according to high ethical and scientific standards for laboratory animals, and our protocol was reviewed and approved by the Institutional Animal Care and Use Committee at the Medical College of Georgia at Augusta University.
as §1

GHRH receptor = assay: Western blot of GHRH receptor expression in jejunum-ileum of T1D rats; assay type: in vivo, rat; conditions: diabetic rats, MIA-602 25 μg/kg s.c. three times a week for fourteen weeks, vs vehicle diabetic
Description: (§2) T1 Diabetes Animal Model. Wistar rats (male, 200-250 g, Envigo RMS, Inc.) were rendered diabetic with a single dose of streptozotocin (STZ, 50 mg/kg body weight, i.p.). Once rats became hyperglycemic (>350 mg/dl plasma glucose, usually 3-4 days post STZ injection), they were divided into two groups, with and without treatment with the GHRH antagonist MIA-602 ([…], s.c.) administered three times a week for 14 weeks after establishment of diabetes. Untreated animals received vehicle alone with the same regimen. Upon completion of the 14 weeks period, animals were placed in metabolic cages for 3 days for adaptation, allowing them free movement, water and food intake. […] On the third day in the metabolic cages, food and water intake was monitored for a period of 24 hours. […]
(§3) The entire small intestine was removed and its length was measured from the pylorus to the ileocecal junction. […] Proteins were detected with the following antibodies: GHRH receptor (Abcam), GLP-1 receptor (Santa Cruz Inc), α-sma (Sigma-Aldrich), or β-actin (Sigma-Aldrich). Data obtained from Western blots were processed by ImageJ quantification software.
T1D was induced in Wistar rats (male, 320-350 g) with intraperitoneal injection of a single dose of STZ (50 mg/kg body weight). […] The entire small intestine was removed from rats, and its length was measured from the pylorus to the ileocecal junction. […]

GLP-1 receptor = assay: Western blot of GLP-1 receptor expression in T1D rats; assay type: in vivo, rat; conditions: MIA-602 treatment vs augmented expression in T1D, FIG. 3A
Description: (§4) T1 Diabetes Animal Model. Wistar rats (male, 200-250 g, Envigo RMS, Inc.) were rendered diabetic with a single dose of streptozotocin (STZ, 50 mg/kg body weight, i.p.). Once rats became hyperglycemic (>350 mg/dl plasma glucose, usually 3-4 days post STZ injection), they were divided into two groups, with and without treatment with the GHRH antagonist MIA-602 ([…], s.c.) administered three times a week for 14 weeks after establishment of diabetes. Untreated animals received vehicle alone with the same regimen. Upon completion of the 14 weeks period, animals were placed in metabolic cages for 3 days for adaptation, allowing them free movement, water and food intake. During the entire experiment, rats were fed regular rat chow (Teklad Diet, Madison, Wis.) and received water ad libitum. On the third day in the metabolic cages, food and water intake was monitored for a period of 24 hours. 24-hour urine specimens were also collected, centrifuged at 400×g for 5 minutes for particulate removal, aliquoted and stored at −80° C. […]
as §3

T1D rats [3] = assay: Kidney damage in T1D rats: proteinuria (albumin/creatinine ratio) and α-sma expression in kidney cortex; assay type: in vivo, rat; conditions: MIA-602 treatment vs vehicle-treated T1D
Description: as §2
Determination of metabolites. ApoB-48 lipoprotein was measured in plasma samples from rats and in culture medium supernatant from IEC by the use of a commercial ELISA kit (MyBioSource). The VLDL/LDL Cholesterol Assay kit (Abcam), the Total Cholesterol Assay kit (Wako) and the PicoProbe Triglyceride Quantification Assay Kit (Abcam) were used for analysis of VLDL/LDL fractions, total cholesterol and triglycerides in plasma samples. Albumin and creatinine levels in urine were analyzed by the use of Nephrat II and Creatinine Companion (Exocell) assay kits, respectively. […]

[4] = test system: thoracic aortas of T1D rats; assay: Vasodilation of thoracic aortic rings from T1D rats (acetylcholine, sodium nitroprusside); assay type: in vivo, rat; conditions: three groups of animals compared, FIG. 5E
Description: FIG. 5A is a graph showing the measurement of proteinuria in urine from control, T1D and MIA-602/T1D rats, expressed as the albumin/creatinine ratio (n=5 per group). FIG. 5B: Upper panel: representative immunoblot of α-smooth muscle actin (α-sma) expression (a marker of fibroblast activation and renal fibrosis) in homogenates of kidney cortex.
Therefore, MCP-1 levels in the serum were analyzed. […] Both dyslipidemia and increased MCP-1 plasma levels represent risk factors for vascular endothelial dysfunction. […] Responses to the endothelial-independent vasodilator sodium nitroprusside (SNP) were similar amongst the three groups of animals (FIG. 5E).

[5] = test system: Dipeptidyl-Peptidase 4 (DPP4); assay: Plasma DPP4 activity in T1D rats (ELISA kit); assay type: in vivo, rat; conditions: non-fasting state, MIA-602 treatment, FIG. 6
Description: Treatment with MIA-602 blunted this effect. DPP4 activity values were measured in plasma obtained from rats in the non-fasting state, by the use of a commercial ELISA kit (MyBioSource).
as §4, with “C. Animals were then euthanized in the morning around 10 am in a fed state, under deep anesthesia with isoflurane, by exsanguination, followed by removal of vital organs.” for “C.”

[6] = test system: lung microvascular endothelial cells; conditions: reference (24); cited from earlier work

exendin-4: GLP-1 receptor agonist (Sigma-Aldrich)
ApoB-48 released into medium ([1]; oleic acid (0.5 mM)-treated IEC, no insulin, agent alone at 10 nM, oleic acid alone 6.67±0.26, medium alone 3.48±0.98): 4.44 ± 0.36 µg/mL

Phac-Ada-Ty^1-D-Arg^2-Asp^3-Ala^4-Ile^5-Phe(F)5^6-Thr^7-Ala^8-Har^9-Tyr(me)^10-His^11-Orn^12-Val^13-Leu^14-Abu^15-Glu^16-Leu^17-Ser^18-Ala^19-His^20-Orn^21-Leu^22-Leu^23-Glu^24-Asp^25-Ile^26-Nle^27-D-Arg^28-Har^29-NH2 [MIA-602]
Plasma levels of apolipoprotein B-48 (ApoB-48) (T1D rats [2]; T1D rats treated with MIA-602, FIG. 2D): blunted | Plasma levels of GIP (T1D rats [2]; T1D rats treated with MIA-602, not significant vs vehicle-treated diabetic (85.7±37.5)): 46.7 ± 9.6 pg/mL | Lipemic plasma (visual) (T1D rats [2]; T1D rats treated with MIA-602 vs vehicle, FIG. 2A): significant reduction | Total cholesterol levels in plasma (T1D rats [2]; T1D rats treated with MIA-602 vs vehicle-treated STZ diabetic animals, FIG. 2B): lower | VLDL/LDL-cholesterol in plasma (T1D rats [2]; T1D rats treated with MIA-602 vs vehicle-treated STZ diabetic animals, FIG. 2C): lower | Plasma glucagon (T1D rats [2]; T1D rats, MIA-602 25 μg/kg s.c. three times a week for 14 weeks, p < 0.02 vs Diabetes): 55.9 ± 34.3^c pg/ml | Plasma GLP-1 (T1D rats [2]; T1D rats, MIA-602 25 μg/kg s.c. three times a week for 14 weeks, p < 0.05 vs Diabetes): 48.7 ± 25.2^e pg/ml | MCP-1 serum levels (T1D rats [2]; T1D rats, MIA-602 treatment, FIG. 5C): reduced | Plasma triglyceride levels (T1D rats [2]; T1D rats, MIA-602 treatment, p<0.01 vs. STZ (89.3±4.2), n=6 per group): 82.3 ± 2.8 mg/dL | Plasma glucose (T1D rats [2]; T1D rats, non-fasting, MIA-602 25 μg/kg s.c. three times a week for 14 weeks, no insulin): 603 ± 137.4^b mg/dl | Blunting of GHRH receptor expression in jejunum-ileum (Western blot densitometry) (GHRH receptor): approximately 5 fold | GLP-1 receptor expression in distal small intestine and liver (GLP-1 receptor): unaffected | ApoB-48 released into medium ([1]; oleic acid (0.5 mM)-treated IEC, no insulin, agent alone at 1 μM, no GLP-1 agonist, oleic acid alone 6.67±0.26): 3.43 ± 0.15 µg/mL | ApoB-48 released into medium ([1]; oleic acid-treated IEC, MIA-602 (1 μM) in the presence of JI-34 and exendin-4): 4.47 ± 0.46 µg/mL | Proteinuria (albumin/creatinine ratio) (T1D rats [3]; FIG. 5A): reduced | α-sma expression in kidney cortex (T1D rats [3]; Western blot, FIG. 5B): reduced | Responses to the endothelial-independent vasodilator sodium nitroprusside (SNP) [4]: similar | Plasma Dipeptidyl-Peptidase 4 (DPP4) activity [5]: reduced | Barrier function [6]: slightly decreased

exendin 9-39
ApoB-48 released into medium ([1]; oleic acid-treated IEC, exendin 9-39 (100 nM) together with MIA-602 (1 μM), MIA-602 alone 3.43±0.15): 7.56 ± 0.53 µg/mL | ApoB-48 released into medium ([1]; oleic acid-treated IEC, pretreatment 100 nM, then exendin-4 (10 nM), exendin-4 alone 4.44±0.36): 8.78 ± 0.34 µg/mL
